Laboratory results reported in patent US12275684B2, “Methods for making and using endoxifen” (Atossa Therapeutics, Inc., priority 2017, dated 2025).

Assay: Bulk drug stability study of (Z)-endoxifen free base
Assay type: physicochemical
Procedure: For bulk stability studies, ˜1 g aliquots of (Z)-endoxifen free base were placed inside individually in double LDPE bags tied with a nylon cable tie. The LDPE bags were then placed in aluminum foil bags and thermally sealed. The samples for stability were placed in tightly capped, 180 mL HDPE bottles under inert conditions (dry nitrogen) at 5° C. and 25° C./60% RH for 12 months, and at 40° C./75% RH for 3 months. The samples were tested for (E)-endoxifen and (Z)-endoxifen concentrations and impurities, moisture or water content by Karl Fischer titration, aerobic bacterial colony forming units and appearance at time points day 0, 10 days, 1 m and 3 m. Table 13 below provides bulk drug stability data at 9 m on endoxifen free base at varying storage conditions.

SMILES: CC/C(=C(\c1ccc(O)cc1)c1ccc(OCCNC)cc1)c1ccccc1 [(Z)-Endoxifen, (Z)-4-(1-(4-(2-(methylamino)ethoxy)phenyl)-2-phenylbut-1-enyl) phenol]
- time for which stable (40° C./75% RH): at least 3 months
- (Z)-endoxifen USP <921≥ Plate Count (Storage 5° C.): 13990 cfu g/mL
- (E)-endoxifen content (Storage 5° C., 0 m): 0.19%
- (Z)-endoxifen % Purity (Storage 5° C., 0 m): 99.5%
- Max Indiv. Impurity (Storage 5° C., 0 m): 0.11%
- Water content (Karl Fischer) (Storage 5° C., 0 m): 0.06%
- (E)-endoxifen content (Storage 5° C., 3 m): 0.17%
- (Z)-endoxifen % Purity (Storage 5° C., 3 m): 99.6%
- Max Indiv. Impurity (Storage 5° C., 3 m): 0.10%
- Water content (Karl Fischer) (Storage 5° C., 3 m): 0.05%
- (E)-endoxifen content (Storage 5° C., 6 m): 0.18%
- (Z)-endoxifen % Purity (Storage 5° C., 6 m): 99.5%
- Max Indiv. Impurity (Storage 5° C., 6 m): 0.11%
- Water content (Karl Fischer) (Storage 5° C., 6 m): 0.05%
- (E)-endoxifen content (Storage 5° C., 9 m): 0.19%
- (Z)-endoxifen % Purity (Storage 5° C., 9 m): 99.5%
- Max Indiv. Impurity (Storage 5° C., 9 m): 0.11%
- Water content (Karl Fischer) (Storage 5° C., 9 m): 0.05%
- (Z)-endoxifen USP <921≥ Plate Count (Storage 25° C./60% RH): 14030 cfu g/mL
- (E)-endoxifen content (Storage 25° C./60% RH, 0 m): 0.19%
- (Z)-endoxifen % Purity (Storage 25° C./60% RH, 0 m): 99.5%
- Max Indiv. Impurity (Storage 25° C./60% RH, 0 m): 0.11%
- Water content (Karl Fischer) (Storage 25° C./60% RH, 0 m): 0.06%
- (E)-endoxifen content (Storage 25° C./60% RH, 3 m): 0.17%
- (Z)-endoxifen % Purity (Storage 25° C./60% RH, 3 m): 99.6%
- Max Indiv. Impurity (Storage 25° C./60% RH, 3 m): 0.11%
- Water content (Karl Fischer) (Storage 25° C./60% RH, 3 m): 0.05%
- (E)-endoxifen content (Storage 25° C./60% RH, 6 m): 0.18%
- (Z)-endoxifen % Purity (Storage 25° C./60% RH, 6 m): 99.5%
- Max Indiv. Impurity (Storage 25° C./60% RH, 6 m): 0.11%
- Water content (Karl Fischer) (Storage 25° C./60% RH, 6 m): 0.06%
- (E)-endoxifen content (Storage 25° C./60% RH, 9 m): 0.19%
- (Z)-endoxifen % Purity (Storage 25° C./60% RH, 9 m): 99.5%
- Max Indiv. Impurity (Storage 25° C./60% RH, 9 m): 0.11%
- Water content (Karl Fischer) (Storage 25° C./60% RH, 9 m): 0.07%
- (Z)-endoxifen USP <921≥ Plate Count (Storage 40° C./75% RH): 13776 cfu g/mL
- (E)-endoxifen content (Storage 40° C./75% RH, 0 m): 0.19%
- (Z)-endoxifen % Purity (Storage 40° C./75% RH, 0 m): 99.5%
- Max Indiv. Impurity (Storage 40° C./75% RH, 0 m): 0.11%
- Water content (Karl Fischer) (Storage 40° C./75% RH, 0 m): 0.06%
- (E)-endoxifen content (Storage 40° C./75% RH, 3 m): 0.17%
- (Z)-endoxifen % Purity (Storage 40° C./75% RH, 3 m): 99.5%
- Max Indiv. Impurity (Storage 40° C./75% RH, 3 m): 0.11%
- Water content (Karl Fischer) (Storage 40° C./75% RH, 3 m): 0.07%
- time for which stable (ambient temperature): at least 9 months
- time for which stable (solid, 5° C.): at least 9 months
- time for which stable (solid, 25° C./60% RH): at least 9 months
- aerobic bacterial plate count TAC (storage conditions studied): less than 20,000 cfu g/mL
- water content (storage conditions studied): not more than 1%
